Reference: PMC10850501 (Nature Communications, 2024)
Entries after “also recorded” stand apart in the source; their conditions may differ. Peptide text beside a SMILES is read from it.

Columns and labels:
[1] = Daily repeat IV dosing, 10 days (chronic PK/safety); format: in vivo, rat (female Wistar)
Experimental: Female Wistar rats (225–250 g, 8–12 weeks old) were observed and acclimatized for 2 weeks prior to running the studies. They were housed in a controlled environment with temperature at […] and 40–70% humidity. They were kept in an alternating 12-hour light/dark cycle, and food, and water was provided as pellets ad libitum. Female Wistar Rats were used for the pharmacokinetics and the drug clearance analysis from the blood. The two hydrogels (ESBP2 and ESBP3) at 10 mg/ml concentration were injected into the rats via the lateral tail vein. For subcutaneous implants, the substance was injected between the shoulder blades and above the lumbar vertebrae, 200 μL each, using a 25-gauge needle. The hydrogel bolus was prepared with 0.9% saline and was injected within 1–2 minutes. The volume injected was approximately 1% of the total body weight of the rat, which was calculated prior to the dosing. The initial blood draw was performed for baseline, and the subsequent blood collection was performed from the lateral vein using 25 g butterfly needles.
Female Wistar rats (225–250 g, 8–12 weeks old) were weighed and repeatedly dosed (1% by weight) IV with ESBP2 or ESBP3 daily at 10 mg/mL (~3 mM). Rat blood samples were collected daily prior to injection via tail vein. Post 10 days of treatment, animals were allowed to recover for 10 days and then sacrificed. Plasma was stored and analyzed as above. The body weight was recorded every day prior to the blood collection.

[2] = Intranasal repeat dose tolerability; format: in vivo, mouse (female C57BL/6); conditions: 25µL / nostril x 2 daily for 10 days in mice; histopathology H&E, MT
Experimental: Female C57BL/6 mice (15–20 g, 8–12 weeks old) were used for intranasal dosing of the peptide. As mentioned previously, 25 µl of hydrogels were injected into each of the nasal cavities twice daily at an interval of 8 hours for 10 days consecutively. The organs were harvested at the final time point, and sectioning was performed for histological evaluation. The plasma was also collected for quantifying peptide clearance in the bloodstream of the animal model.

[3] = Ultracentrifugation pellet / solid-state NMR of assemblies; format: physicochemical; conditions: 10 mg/mL, 150,000 RCF, 30 minutes, 4 °C
Experimental: To experimentally validate E1:ESBP3 peptide mixtures, solid-state NMR experiments were pursued. ^13C solid-state NMR measurements were conducted using cross-polarization magic angle spinning (^1H-^13C CPMAS) to evaluate sample structural order and structural differences between samples. The peptides were not isotopically enriched, so the ^13C signal was from the 1% natural abundance for ^13C.
After peptide dissolution at 10 mg/mL, the samples were concentrated by ultracentrifugation for 30 minutes in Bruker 3.22 mm NMR rotors at 4 °C and 150,000 RCF in Ultra-clear tubes of SW-41 Ti swinging bucket rotor fitted onto a Beckman Optima XPN-100 centrifuge. A 11.75 T magnet Bruker Avance III HD 500 spectrometer (500 MHz, ^1H NMR Larmor frequency) equipped with a room temperature 3.2 mm Bruker Low-E ^1H/^13C/^15N NMR probe was used for measurements. ^13C chemical shift referencing was conducted using adamantane referenced to tetramethylsilane. 1D ^13C cross-polarization magic angle spinning (CPMAS) spectra were collected using the standard Bruker cp pulse sequence. A 10 kHz magic angle spinning speed was used for all samples. The channels frequency for the optimization of the Hartmann-Hahn condition for ^1H and ^13C are 500.133 MHz and 125.771 MHz, respectively. A recycle delay time of 4 seconds (d1) and dwell time of 5 μs (DW) were used. Acquisition time was set to 10.24 ms. […]

CC[C@H](C)[C@H](NC(=O)[C@H](Cc1ccc(O)cc1)NC(=O)[C@@H](NC(=O)[C@H](CCCCN)NC(=O)[C@H](Cc1ccc(O)cc1)NC(=O)[C@H](CCC(N)=O)NC(=O)CNC(=O)[C@H](CCC(=O)O)NC(=O)[C@H](CC(C)C)NC(=O)[C@H](CO)NC(=O)[C@H](CC(C)C)NC(=O)[C@H](CO)NC(=O)[C@H](CC(C)C)NC(=O)[C@H](CO)NC(=O)[C@H](CC(C)C)NC(=O)[C@H](CO)NC(=O)[C@H](CC(C)C)NC(=O)[C@H](CO)NC(=O)[C@H](CC(C)C)NC(=O)[C@H](CO)NC(=O)[C@H](CCC(=O)O)NC(C)=O)[C@@H](C)O)C(=O)N[C@@H](CC(=O)O)C(=O)N[C@@H](CCCCN)C(=O)N[C@@H](CC(N)=O)C(=O)N[C@@H](CC(N)=O)C(=O)N[C@@H](Cc1c[nH]cn1)C(=O)N[C@@H](Cc1ccc(O)cc1)C(=O)N[C@@H](C)C(=O)N[C@@H](CCC(=O)O)C(=O)N[C@@H](CC(=O)O)C(=O)N[C@@H](CCC(=O)O)C(=O)N[C@@H](CCCNC(=N)N)C(=O)N[C@@H](Cc1ccc(O)cc1)C(=O)N[C@@H](CCCCN)C(N)=O [ESBP3] (Ac-ESLSLSLSLSLSLEGQYKTYIDKNNHYAEDERYK-NH2)
repeat IV dosing safety, in words ([1]; daily IV for 10 days, ~1 w% (10 mg/mL), 225-250 g adult rats): no adverse effect
significant changes in body weight (ESBP3 also animal behavior, adverse events, gross organ morphology) compared to carrier ([1]; daily repeated IV dosing for 10 days, rats): no
intranasal repeat dosing safety, in words [2]: no significant body weight changes or adverse organ morphology; also recorded: nasal turbinate showing no adverse effects; also recorded: no adverse toxicity
ultracentrifuge pellet (assembly into nanofibers) [3]: no pellet
